Patent US20260262643A1, “HERBICIDAL BENZOXAZINES” (FMC CORPORATION, priority 2022, published 2026)

Key:
[1] = test system: rice; experiment: Test B flooded paddy test; format: in vivo, Oryza sativa; conditions: 250 g ai/ha, Flood, 13 days, 0 to 100 scale (0 no effect, 100 complete control)
Method in brief: (§1)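 Compound is introduced into paddy water covering soil by 3 cm, treating plants that have reached two leaves. Pots are kept flooded at that depth under greenhouse conditions. Assessment at 13 days gives a 0–100 visual control score.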

[2] = test system: barnyardgrass; experiment: Test A postemergence; format: in vivo, Echinochloa crusgalli; conditions: postemergence, 10 days
Method in brief: (§2)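 Seeds in loam–sand blend received a directed preemergence soil spray of compound in non-phytotoxic solvent with surfactant; postemergence plants (2–10 cm, one- to two-leaf stage) were sprayed with the same formulation. After 10 days in greenhouse, injury was rated visually versus untreated controls, 0 (no effect) to 100 (complete control).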

[3] = test system: horseweed; experiment: Test A postemergence; format: in vivo, Erigeron canadensis; conditions: postemergence, 10 days
Method in brief: as §2

[4] = test system: soybean; experiment: Test A postemergence; format: in vivo, Glycine max; conditions: postemergence, 10 days
Method in brief: as §2

[5] = test system: pigweed, palmer; experiment: Test A preemergence; format: in vivo, Amaranthus palmeri; conditions: 0 to 100 scale
Method in brief: as §2

[6] = test system: kochia; experiment: Test A postemergence; format: in vivo, Bassia scoparia; conditions: postemergence, 10 days
Method in brief: as §2

[7] = test system: galium; experiment: Test A postemergence; format: in vivo, Galium aparine; conditions: postemergence, 10 days
Method in brief: as §2

[8] = test system: ryegrass, Italian; experiment: Test A preemergence; format: in vivo, Lolium multiflorum; conditions: 0 to 100 scale
Method in brief: as §2

[9] = test system: kochia; experiment: Test A preemergence; format: in vivo, Bassia scoparia; conditions: 0 to 100 scale
Method in brief: as §2

[10] = test system: soybean; experiment: Test A preemergence; format: in vivo, Glycine max; conditions: 0 to 100 scale
Method in brief: as §2

[11] = test system: blackgrass; experiment: Test A postemergence; format: in vivo, Alopecurus myosuroides; conditions: postemergence, 10 days
Method in brief: as §2

[12] = test system: oat, wild; experiment: Test A preemergence; format: in vivo, Avena fatua; conditions: 0 to 100 scale
Method in brief: as §2

[13] = test system: barnyardgrass; experiment: Test B flooded paddy test; format: in vivo, Echinochloa crus-galli; conditions: 250 g ai/ha, Flood, 13 days, 0 to 100 scale (0 no effect, 100 complete control)
Method in brief: as §1

[14] = test system: barnyardgrass; experiment: Test A preemergence; format: in vivo, Echinochloa crusgalli; conditions: visual injury after 10 days, 0 to 100 scale, 0 is no effect, 100 is complete control
Method in brief: as §2

[15] = test system: oat, wild; experiment: Test A postemergence; format: in vivo, Avena fatua; conditions: postemergence, 10 days
Method in brief: as §2

[16] = test system: foxtail, giant; experiment: Test A postemergence; format: in vivo, Setaria faberi; conditions: postemergence, 10 days
Method in brief: as §2

[17] = test system: corn; experiment: Test A postemergence; format: in vivo, Zea mays; conditions: postemergence, 10 days
Method in brief: as §2

[18] = test system: wheat; experiment: Test A preemergence; format: in vivo, Triticum aestivum; conditions: 0 to 100 scale
Method in brief: as §2

[19] = test system: wheat; experiment: Test A postemergence; format: in vivo, Triticum aestivum; conditions: postemergence, 10 days
Method in brief: as §2

[20] = test system: sedge, umbrella; experiment: Test B flooded paddy test; format: in vivo, Cyperus difformis; conditions: 250 g ai/ha, Flood, 13 days, 0 to 100 scale (0 no effect, 100 complete control)
Method in brief: as §1

[21] = test system: ryegrass, Italian; experiment: Test A postemergence; format: in vivo, Lolium multiflorum; conditions: postemergence, 10 days
Method in brief: as §2

[22] = test system: blackgrass; experiment: Test A preemergence; format: in vivo, Alopecurus myosuroides; conditions: 0 to 100 scale
Method in brief: as §2

[23] = test system: ragweed; experiment: Test A postemergence; format: in vivo, Ambrosia artemisiifolia; conditions: postemergence, 10 days
Method in brief: as §2

[24] = test system: corn; experiment: Test A preemergence; format: in vivo, Zea mays; conditions: 0 to 100 scale
Method in brief: as §2

[25] = test system: ducksalad; experiment: Test B flooded paddy test; format: in vivo, Heteranthera limosa; conditions: 250 g ai/ha, Flood, 13 days, 0 to 100 scale (0 no effect, 100 complete control)
Method in brief: as §1

[26] = test system: pigweed, palmer; experiment: Test A postemergence; format: in vivo, Amaranthus palmeri; conditions: postemergence, 10 days
Method in brief: as §2

[27] = test system: ragweed; experiment: Test A preemergence; format: in vivo, Ambrosia artemisiifolia; conditions: 0 to 100 scale
Method in brief: as §2

[28] = test system: foxtail, giant; experiment: Test A preemergence; format: in vivo, Setaria faberi; conditions: 0 to 100 scale
Method in brief: as §2

[29] = 125 g ai/ha, 0 to 100 scale, 0 no effect, 100 complete control
[30] = 500 g ai/ha, visual injury, 0 to 100 scale (0 no effect, 100 complete control)
[31] = 500 g ai/ha, visual injury after 10 days, 0 is no effect, 100 is complete control

For `Cc1cccc2c1OC(C(F)(F)F)CN2C(=O)c1ccnc(-n2cncn2)c1` (stereo not shown) [Compound 144], the “Plant response rating, Rice” value [1] was 0, the “Barnyardgrass plant response rating” value [2, 29] was 20 and the “Plant response rating, Barnyardgrass” value [2, 30] was 90. The “Horseweed plant response rating” value [3, 29] was 0, the “Plant response rating, Horseweed” value [3, 30] was 0 and the “Soybean plant response rating” value [4, 29] was 100. For the same molecule, the “Plant response rating, Soybean” value [4, 30] was 100, the “Plant response rating, Pigweed, Palmer” value ([5]; 125 g ai/ha) was 10 and the “Plant response rating, Pigweed, Palmer” value [5, 31] was 100. The “Kochia plant response rating” value [6, 29] was 10, the “Plant response rating, Kochia” value [6, 30] was 60 and the “Galium plant response rating” value [7, 29] was 70. For the same molecule, the “Plant response rating, Galium” value [7, 30] was 100, the “Plant response rating, Ryegrass, Italian” value ([8]; 125 g ai/ha) was 90 and the “Plant response rating, Ryegrass, Italian” value [8, 31] was 100. The “Plant response rating, Kochia” value ([9]; 125 g ai/ha) was 0, the “Plant response rating, Kochia” value [9, 31] was 60 and the “Plant response rating, Soybean” value ([10]; 125 g ai/ha) was 0. The “Plant response rating, Soybean” value [10, 31] was 100, the “Blackgrass plant response rating” value [11, 29] was 70 and the “Plant response rating, Blackgrass” value [11, 30] was 90. The “Plant response rating, Oat, Wild” value ([12]; 125 g ai/ha) was 30, the “Plant response rating, Oat, Wild” value [12, 31] was 60 and the “Plant response rating, Barnyardgrass” value [13] was 0. For the same molecule, the “Plant response rating, Barnyardgrass” value ([14]; 125 g ai/ha) was 50, the “Plant response rating, Barnyardgrass” value ([14]; 500 g ai/ha) was 90 and the “Oat, Wild plant response rating” value [15, 29] was 0. For the same molecule, the “Plant response rating, Oat, Wild” value [15, 30] was 40, the “Foxtail, Giant plant response rating” value [16, 29] was 80 and the “Plant response rating, Foxtail, Giant” value [16, 30] was 90. For the same molecule, the “Corn plant response rating” value [17, 29] was 40, the “Plant response rating, Corn” value [17, 30] was 70 and the “Plant response rating, Wheat” value ([18]; 125 g ai/ha) was 30. For the same molecule, the “Plant response rating, Wheat” value [18, 31] was 50, the “Wheat plant response rating” value [19, 29] was 20 and the “Plant response rating, Wheat” value [19, 30] was 60. For the same molecule, the “Plant response rating, Sedge, Umbrella” value [20] was 60, the “Ryegrass, Italian plant response rating” value [21, 29] was 50 and the “Plant response rating, Ryegrass, Italian” value [21, 30] was 90. For the same molecule, the “Plant response rating, Blackgrass” value ([22]; 125 g ai/ha) was 50, the “Plant response rating, Blackgrass” value [22, 31] was 80 and the “Ragweed plant response rating” value [23, 29] was 0. For the same molecule, the “Plant response rating, Ragweed” value [23, 30] was 0, the “Plant response rating, Corn” value ([24]; 125 g ai/ha) was 30 and the “Plant response rating, Corn” value [24, 31] was 50. For the same molecule, the “Plant response rating, Ducksalad” value [25] was 65, the “Pigweed, Palmer plant response rating” value [26, 29] was 20 and the “Plant response rating, Pigweed, Palmer” value [26, 30] was 40. The “Plant response rating, Ragweed” value ([27]; 125 g ai/ha) was 0, the “Plant response rating, Ragweed” value [27, 31] was 30 and the “Plant response rating, Foxtail, Giant” value ([28]; 125 g ai/ha) was 100. For the same molecule, the “Plant response rating, Foxtail, Giant” value [28, 31] was 100.
